We go through 13 molecules from ChEMBL document CHEMBL5352481, “Discovery of small-molecule protein stabilizers toward exogenous alpha-l-iduronidase to reduce the accumulated heparan sulfate in mucopolysaccharidosis type I cells” (Eur J Med Chem, 2023).

The target of experiment [1] is T1, Alpha-L-iduronidase (Homo sapiens) (UniProt P35475).
T1 sequence (whole entry): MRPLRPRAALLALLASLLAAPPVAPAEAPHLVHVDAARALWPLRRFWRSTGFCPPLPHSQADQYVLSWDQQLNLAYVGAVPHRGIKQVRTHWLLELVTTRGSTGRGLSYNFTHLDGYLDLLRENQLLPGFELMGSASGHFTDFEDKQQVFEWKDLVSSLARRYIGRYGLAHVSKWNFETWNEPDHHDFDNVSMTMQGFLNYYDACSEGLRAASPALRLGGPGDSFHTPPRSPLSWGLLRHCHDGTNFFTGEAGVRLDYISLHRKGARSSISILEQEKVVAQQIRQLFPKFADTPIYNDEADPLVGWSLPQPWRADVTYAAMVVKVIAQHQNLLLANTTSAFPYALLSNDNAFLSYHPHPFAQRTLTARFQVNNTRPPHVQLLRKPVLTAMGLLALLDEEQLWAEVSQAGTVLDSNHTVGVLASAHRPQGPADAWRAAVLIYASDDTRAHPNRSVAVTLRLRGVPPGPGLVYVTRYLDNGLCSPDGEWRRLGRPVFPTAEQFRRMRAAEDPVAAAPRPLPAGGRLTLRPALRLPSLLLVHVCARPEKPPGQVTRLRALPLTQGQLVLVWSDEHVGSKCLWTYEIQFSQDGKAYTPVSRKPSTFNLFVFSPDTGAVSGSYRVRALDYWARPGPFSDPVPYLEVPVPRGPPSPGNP
The experiment can be described thus: Stabilization of human recombinant alpha-L-iduronidase in human GM02846 cells assessed as reduction in heparan sulfate level at 10 to 500 uM incubated for 1 day followed by 1 day washout. The experiment is classed as cell-based. As to conditions: dose 10-500 µM.

Experiment [2] addresses T1, Alpha-L-iduronidase (Homo sapiens). The experiment can be described thus: Stabilization of human recombinant alpha-L-iduronidase in human GM01391 cells assessed as fold increase in IDUA activity at 100 uM incubated for 1 day followed by 1 day washout relative to control. The format is cell-based.
Experiment [3] shares this target. The experiment can be described thus: Stabilization of human recombinant alpha-L-iduronidase in human GM01391 cells assessed as fold increase in IDUA activity at 500 uM measured after 9 days relative to control. As to conditions: time 9.0 day. The format is cell-based.
The target of experiment [4] is T2, Alpha-L-iduronidase (Homo sapiens, UniProt P35475).
T2 sequence (P35475 whole entry): T1 sequence (whole entry)
The experiment can be described thus: Inhibition of human recombinant alpha-L-iduronidase using 4-methylumbelliferyl-alpha-iduronide as fluorogenic substrate assessed as inhibition constant by Lineweaver-Burk plot analysis.

The target of experiment [5] is T2, Alpha-L-iduronidase. The experiment can be described thus: Inhibition of human recombinant alpha-L-iduronidase using 4-methylumbelliferyl-alpha-iduronide as fluorogenic substrate.
Experiment [6] concerns the target T1, Alpha-L-iduronidase (Homo sapiens). The experiment can be described thus: Stabilization of human recombinant alpha-L-iduronidase in human GM01391 cells assessed as fold increase in IDUA activity at 500 uM incubated for 1 day followed by 1 day washout relative to control. The experiment is classed as cell-based.
Experiment [7] shares this target. The experiment can be described thus: Stabilization of human recombinant alpha-L-iduronidase in human GM01391 cells assessed as reduction in heparan sulfate level at 500 uM incubated for 1 day followed by 1 day washout. The format is cell-based.
For experiment [8] the target is unchanged. The experiment can be described thus: Stabilization of human recombinant alpha-L-iduronidase in human GM02846 cells assessed as increase in IDUA activity incubated for 1 day followed by 1 day washout. The experiment is classed as cell-based. Conditions: dose 10-500 µM.
The target of experiment [9] is T2, Alpha-L-iduronidase. The experiment can be described thus: Inhibition of human alpha-L-iduronidase using 4-methylumbelliferyl-alpha-L-iduronide as substrate assessed as inhibition constant.
For experiment [10], the target named is T1, Alpha-L-iduronidase (Homo sapiens). The experiment can be described thus: Inhibition of human recombinant alpha-L-iduronidase using 4-methylumbelliferyl-alpha-iduronide as fluorogenic substrate at 250 uM relative to control.
Experiment [11] shares this target. The experiment can be described thus: Stabilization of human recombinant alpha-L-iduronidase in human GM01391 cells assessed as increase in IDUA activity at 100 uM incubated for 1 day followed by 1 day washout. The format is cell-based.
Experiment [12] concerns the target T2, Alpha-L-iduronidase. The experiment can be described thus: Inhibition of human seminal fluid alpha-L-iduronidase using 4-methylumbelliferyl-alpha-L-idosiduronic acid as substrate incubated for 1 hr by fluorescence based assay.
The target in experiment [13] is T1, Alpha-L-iduronidase (Homo sapiens). The experiment can be described thus: Inhibition of human recombinant alpha-L-iduronidase using 4-methylumbelliferyl-alpha-L-iduronide as fluorogenic substrate at 0.1 mM relative to control.
Experiment [14] has as its target T2, Alpha-L-iduronidase. The experiment can be described thus: Inhibition of alpha-L-iduronidase (unknown origin) assessed as inhibition constant.

The source made the active and inactive calls. No cut-off for these calls is given here.

As a reminder, the Ki is the equilibrium dissociation constant of an inhibitor or competing ligand from its target. In general, IC50 refers to the concentration needed to halve the response being measured. For `NCC[C@@H]1O[C@@H](C(=O)O)[C@@H](O)[C@H](O)[C@H]1O`, the result in [1] and in experiment [7] was Active. Besides, the fold change (FC) in experiment [2] was 1.4; in experiment [3], more than 1.6; in experiment [6] it was 3. For the same molecule, the Ki on Alpha-L-iduronidase [4] came to 4 µM. Moreover, at Alpha-L-iduronidase [5], the IC50 is 6.7 µM. Moreover, the Activity result in experiment [8] is “Dose-Dependent Effect”.

In the case of `O=C1N[C@@H](C(=O)O)[C@@H](O)[C@H](O)[C@H]1O`, on Alpha-L-iduronidase [9], the Ki is 94 µM.

As a reminder, the inhibition is the relative decrease from the control value, in per cent. In the case of `O=C(Cc1ccc(OP(=O)(O)O)cc1)NCC[C@@H]1N[C@@H](C(=O)O)[C@@H](O)[C@H](O)[C@H]1O`, the inhibition in [10] is less than 10%. For the same molecule, in [11], the result was inactive.

In the case of `O=C(Cc1ccccc1OP(=O)(O)O)NCC[C@@H]1N[C@@H](C(=O)O)[C@@H](O)[C@H](O)[C@H]1O`, the inhibition in [10] was 43%. In addition, the outcome in [11] was inactive.

Take `O=C1O[C@H]([C@@H](O)C(=O)O)[C@H](O)[C@H]1O`: at Alpha-L-iduronidase [12], half-maximal inhibition (IC50) was put at 40 µM.

For `O=C(Cc1cccc(OP(=O)(O)O)c1)NCC[C@@H]1O[C@@H](C(=O)O)[C@@H](O)[C@H](O)[C@H]1O`, in experiment [2], the fold change (FC) is 1.6. Further, the concentration for half-maximal inhibition (IC50) on Alpha-L-iduronidase [5] was found to be 4 µM.

With `O=C(O)[C@H]1[C@@H](O)[C@H](O)[C@@H](O)c2nnnn21`, the Ki at Alpha-L-iduronidase [9] is 1300 µM.

For the molecule `O=C(/C=C/c1ccccc1)NCc1cn([C@@H]2O[C@@H](C(=O)O)[C@@H](O)[C@H](O)[C@H]2O)nn1`, the inhibition in experiment [13] amounted to 74%.

For the molecule `NCC[C@@H]1N[C@@H](C(=O)O)[C@@H](O)[C@H](O)[C@H]1O`, in experiment [10], the inhibition is less than 10%. Also, the outcome in experiment [11] was inactive.

For the molecule `O=C(O)[C@]1(F)O[C@@H](F)[C@H](O)[C@@H](O)[C@@H]1O`, the Ki at Alpha-L-iduronidase [14] is 1.2 µM.

Take `O=C(Cc1ccc(OP(=O)(O)O)cc1)NCC[C@@H]1O[C@@H](C(=O)O)[C@@H](O)[C@H](O)[C@H]1O`: the IC50 at Alpha-L-iduronidase [5] is 5.4 µM. In addition, the outcome in experiment [11] was Active.

For the molecule `O=C(Cc1ccccc1OP(=O)(O)O)NCC[C@@H]1O[C@@H](C(=O)O)[C@@H](O)[C@H](O)[C@H]1O`, on Alpha-L-iduronidase [5], the IC50 is 1 µM. The outcome in [11] was inactive.

On to `O=C(Cc1cccc(OP(=O)(O)O)c1)NCC[C@@H]1N[C@@H](C(=O)O)[C@@H](O)[C@H](O)[C@H]1O`, for which, in experiment [10], the inhibition was less than 10%. In addition, in experiment [11], the outcome was inactive.
